In ChEMBL document CHEMBL3885881, “DrugMatrix”:

Species: Rattus norvegicus
Assay: DrugMatrix - Regimen: Daily Repeat
Format: toxicity, organism-based, Sprague-Dawley
Set-up: regimen Daily Repeat, gender Male, age 6-8 weeks
Conditions: in vivo, po, route oral GAVAGE, […]; for ABSOLUTE BASOPHIL / ABSOLUTE EOSINOPHIL / ABSOLUTE LYMPHOCYTE / ABSOLUTE MONOCYTE / ABSOLUTE SEGMENTED NEUTROPHIL / BASOPHIL / EOSINOPHIL / ERYTHROCYTE COUNT / HEMATOCRIT / HEMOGLOBIN / LEUKOCYTE COUNT / LYMPHOCYTE / MEAN CORPUSCULAR HEMOGLOBIN / MEAN CORPUSCULAR HEMOGLOBIN CONCENTRATION / MEAN CORPUSCULAR VOLUME / MONOCYTE / NEUTROPHIL / NUCLEATED RED BLOOD CELLS / PLATELET COUNT: tissue Blood; for ALANINE AMINOTRANSFERASE / ALBUMIN / ALKALINE PHOSPHATASE / ASPARTATE AMINOTRANSFERASE / BLOOD UREA NITROGEN / CARBON DIOXIDE / CHLORIDE / CHOLESTEROL / CREATINE PHOSPHOKINASE / CREATININE / GLUCOSE / LACTATE DEHYDROGENASE / LIPASE / PHOSPHORUS / POTASSIUM / SODIUM / TOTAL BILIRUBIN / TOTAL PROTEIN / URIC ACID: tissue Plasma
[1] = 0 mg/kg, 72 h, dose level Control, time 3 day
[2] = 0 mg/kg, 120 h, dose level Control, time 5 day
[3] = 30 mg/kg, 72 h, dose level Low, time 3 day
[4] = 30 mg/kg, 120 h, dose level Low, time 5 day

## Cc1ccc(-c2cc(C(F)(F)F)nn2-c2ccc(S(N)(=O)=O)cc2)cc1 [CELECOXIB]
[1]
  ABSOLUTE BASOPHIL: 0 CELLS/uL
  ABSOLUTE EOSINOPHIL: 104.17 CELLS/uL
  ABSOLUTE LYMPHOCYTE: 14547 CELLS/uL
  ABSOLUTE MONOCYTE: 292 CELLS/uL
  ABSOLUTE SEGMENTED NEUTROPHIL: 1640.17 CELLS/uL
  BASOPHIL: 0%
  EOSINOPHIL: 0.67%
  ERYTHROCYTE COUNT: 5.35 x10E6/uL
  HEMATOCRIT: 33.67%
  HEMOGLOBIN: 13.38 G/DL
  LEUKOCYTE COUNT: 16.58 x10E3/uL
  LYMPHOCYTE: 87.5%
  MEAN CORPUSCULAR HEMOGLOBIN: 25.05 pg
  MEAN CORPUSCULAR HEMOGLOBIN CONCENTRATION: 39.78 G/DL
  MEAN CORPUSCULAR VOLUME: 62.97 fL
  MONOCYTE: 1.83%
  NEUTROPHIL: 10%
  NUCLEATED RED BLOOD CELLS: 0 /100WBC
  PLATELET COUNT: 1274.5 x10E3/uL
  ALANINE AMINOTRANSFERASE: 76.83 u/L
  ALBUMIN: 3.97 G/DL
  ALKALINE PHOSPHATASE: 347 u/L
  ASPARTATE AMINOTRANSFERASE: 97.17 u/L
  BLOOD UREA NITROGEN: 14.33 mg/dL
  CARBON DIOXIDE: 25.5 mmol/L
  CHLORIDE: 100.33 MEQ/L
  CHOLESTEROL: 68.67 mg/dL
  CREATINE PHOSPHOKINASE: 659.17 u/L
  CREATININE: 0.32 mg/dL
  GLUCOSE: 160.67 mg/dL
  LACTATE DEHYDROGENASE: 271.5 u/L
  LIPASE: 11.67 u/L
  PHOSPHORUS: 10.65 mg/dL
  POTASSIUM: 5.95 MEQ/L
  SODIUM: 139.65 MEQ/L
  TOTAL BILIRUBIN: 0.2 mg/dL
  TOTAL PROTEIN: 5.72 G/DL
  URIC ACID: 1.37 mg/dL
[2]
  ABSOLUTE BASOPHIL: 0 CELLS/uL
  ABSOLUTE EOSINOPHIL: 331.5 CELLS/uL
  ABSOLUTE LYMPHOCYTE: 15021.67 CELLS/uL
  ABSOLUTE MONOCYTE: 376.5 CELLS/uL
  ABSOLUTE SEGMENTED NEUTROPHIL: 3070.33 CELLS/uL
  BASOPHIL: 0%
  EOSINOPHIL: 1.83%
  ERYTHROCYTE COUNT: 5.24 x10E6/uL
  HEMATOCRIT: 33.22%
  HEMOGLOBIN: 13.2 G/DL
  LEUKOCYTE COUNT: 18.8 x10E3/uL
  LYMPHOCYTE: 79.67%
  MEAN CORPUSCULAR HEMOGLOBIN: 25.17 pg
  MEAN CORPUSCULAR HEMOGLOBIN CONCENTRATION: 39.73 G/DL
  MEAN CORPUSCULAR VOLUME: 63.38 fL
  MONOCYTE: 2%
  NEUTROPHIL: 16.5%
  NUCLEATED RED BLOOD CELLS: 0 /100WBC
  PLATELET COUNT: 1142.67 x10E3/uL
  ALANINE AMINOTRANSFERASE: 52.5 u/L
  ALBUMIN: 3.9 G/DL
  ALKALINE PHOSPHATASE: 284.5 u/L
  ASPARTATE AMINOTRANSFERASE: 81.33 u/L
  BLOOD UREA NITROGEN: 16 mg/dL
  CARBON DIOXIDE: 25.33 mmol/L
  CHLORIDE: 99.5 MEQ/L
  CHOLESTEROL: 74.83 mg/dL
  CREATINE PHOSPHOKINASE: 448.33 u/L
  CREATININE: 0.37 mg/dL
  GLUCOSE: 164.17 mg/dL
  LACTATE DEHYDROGENASE: 290.67 u/L
  LIPASE: 6.83 u/L
  PHOSPHORUS: 11.5 mg/dL
  POTASSIUM: 6.28 MEQ/L
  SODIUM: 139.5 MEQ/L
  TOTAL BILIRUBIN: 0.13 mg/dL
  TOTAL PROTEIN: 5.55 G/DL
  URIC ACID: 1.12 mg/dL
[3]
  ABSOLUTE BASOPHIL: 0 CELLS/uL
  ABSOLUTE EOSINOPHIL: 104 CELLS/uL
  ABSOLUTE LYMPHOCYTE: 15747.67 CELLS/uL
  ABSOLUTE MONOCYTE: 360 CELLS/uL
  ABSOLUTE SEGMENTED NEUTROPHIL: 1788.33 CELLS/uL
  BASOPHIL: 0%
  EOSINOPHIL: 0.67%
  ERYTHROCYTE COUNT: 5.61 x10E6/uL
  HEMATOCRIT: 36.13%
  HEMOGLOBIN: 13.97 G/DL
  LEUKOCYTE COUNT: 18 x10E3/uL
  LYMPHOCYTE: 87.33%
  MEAN CORPUSCULAR HEMOGLOBIN: 24.9 pg
  MEAN CORPUSCULAR HEMOGLOBIN CONCENTRATION: 38.63 G/DL
  MEAN CORPUSCULAR VOLUME: 64.4 fL
  MONOCYTE: 2%
  NEUTROPHIL: 10%
  NUCLEATED RED BLOOD CELLS: 0.33 /100WBC
  PLATELET COUNT: 1151.67 x10E3/uL
  ALANINE AMINOTRANSFERASE: 77 u/L
  ALBUMIN: 4.2 G/DL
  ALKALINE PHOSPHATASE: 443 u/L
  ASPARTATE AMINOTRANSFERASE: 79.33 u/L
  BLOOD UREA NITROGEN: 10.67 mg/dL
  CARBON DIOXIDE: 22.67 mmol/L
  CHLORIDE: 102.67 MEQ/L
  CHOLESTEROL: 51 mg/dL
  CREATINE PHOSPHOKINASE: 260 u/L
  CREATININE: 0.12 mg/dL
  GLUCOSE: 164.33 mg/dL
  LACTATE DEHYDROGENASE: 234.67 u/L
  LIPASE: 10.67 u/L
  PHOSPHORUS: 11.63 mg/dL
  POTASSIUM: 6.08 MEQ/L
  SODIUM: 142.6 MEQ/L
  TOTAL BILIRUBIN: 0.13 mg/dL
  TOTAL PROTEIN: 6.07 G/DL
  URIC ACID: 1.27 mg/dL
[4]
  ABSOLUTE BASOPHIL: 0 CELLS/uL
  ABSOLUTE EOSINOPHIL: 252.67 CELLS/uL
  ABSOLUTE LYMPHOCYTE: 15009.33 CELLS/uL
  ABSOLUTE MONOCYTE: 640.67 CELLS/uL
  ABSOLUTE SEGMENTED NEUTROPHIL: 3164 CELLS/uL
  BASOPHIL: 0%
  EOSINOPHIL: 1.33%
  ERYTHROCYTE COUNT: 5.76 x10E6/uL
  HEMATOCRIT: 36.13%
  HEMOGLOBIN: 14 G/DL
  LEUKOCYTE COUNT: 19.07 x10E3/uL
  LYMPHOCYTE: 78.67%
  MEAN CORPUSCULAR HEMOGLOBIN: 24.33 pg
  MEAN CORPUSCULAR HEMOGLOBIN CONCENTRATION: 38.73 G/DL
  MEAN CORPUSCULAR VOLUME: 62.87 fL
  MONOCYTE: 3.33%
  NEUTROPHIL: 16.67%
  NUCLEATED RED BLOOD CELLS: 0 /100WBC
  PLATELET COUNT: 1265.67 x10E3/uL
  ALANINE AMINOTRANSFERASE: 70.67 u/L
